Laboratory results published in patent publication US10323000B2, “Indole derivatives and their use in neurodegenerative diseases” (priority 2014, dated 2019).

Target: human P2X7 receptor (Homo sapiens (Human), UniProt Q99572)
Assay: Pore permeation assay (YO PRO dye uptake)
Assay type: cell-based
Conditions: not given
Protocol: Agonist-induced pore formation was determined by measuring cellular uptake of YO PRO fluorescence dye in HEK293 transfected with human P2X7 receptor. A HEK293 cell over expressing human P2X7 was harvested using HQTase reagent to detach the cells from T75 cm flask. The harvested cells are centrifuged @1200 rpm for 5 min at room temperature. The viability of cells was determined by Trypan blue dye and the cells are plated @10,000 cell/well in 50 ul volume in a 384W BD Poly lysine coated plate and incubated overnight at 37 C. […] The plate was centrifuged at 1000 rpm for 5 seconds and incubated at room temperature for 30 minutes. The uptake of YO PRO dye into the cells was measured using Envision Fluorescence plate reader instrument (Perkin Elmer).

Chain of human P2X7 receptor (Q99572 whole entry): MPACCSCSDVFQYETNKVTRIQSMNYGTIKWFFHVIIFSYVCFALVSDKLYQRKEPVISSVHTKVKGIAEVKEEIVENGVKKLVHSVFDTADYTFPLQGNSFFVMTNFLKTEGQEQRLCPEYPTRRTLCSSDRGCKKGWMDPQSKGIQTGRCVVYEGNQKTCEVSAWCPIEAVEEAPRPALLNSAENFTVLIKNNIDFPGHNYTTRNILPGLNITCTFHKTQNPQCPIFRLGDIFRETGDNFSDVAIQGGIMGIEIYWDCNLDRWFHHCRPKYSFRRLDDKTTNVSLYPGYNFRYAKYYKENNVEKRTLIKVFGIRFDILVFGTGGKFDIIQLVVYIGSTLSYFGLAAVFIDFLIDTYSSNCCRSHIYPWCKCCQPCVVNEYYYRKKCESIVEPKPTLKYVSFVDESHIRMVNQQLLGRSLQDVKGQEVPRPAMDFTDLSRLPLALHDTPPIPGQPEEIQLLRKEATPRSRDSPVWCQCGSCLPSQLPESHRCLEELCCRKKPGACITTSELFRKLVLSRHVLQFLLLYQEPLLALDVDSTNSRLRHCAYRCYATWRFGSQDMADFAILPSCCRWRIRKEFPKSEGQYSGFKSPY

Compound | IC50
COCCn1cc(C(=O)NCCC2(O)CCCC2)c2c(Cl)cccc21 [Compound 16, 4-Chloro-1-(2-methoxy-ethyl)-1H-indole-3-carboxylic acid [2-(1-hydroxy-cyclopentyl)-ethyl]-amide] | 0.5 to 0.999 µM
O=C(NCC1CCC(F)(F)CC1)c1cn(C2CCCO2)c2cccc(Cl)c12 (stereo not shown) [Compound 99, 4-chloro-N-((4,4-difluorocyclohexyl)methyl)-1-(tetrahydrofuran-2-yl)-1H-indole-3-carboxamide] | 0.101 to 0.5 µM
CC1CC(O)(CNC(=O)c2cn(C3COC3)c3cccc(Cl)c23)CCC1(F)F (stereo not shown) [Compound 46, 4-chloro-N-((4,4-difluoro-1-hydroxy-3-methylcyclohexyl)methyl)-1-(oxetan-3-yl)-1H-indole-3-carboxamide] | 0.101 to 0.5 µM
COCCn1cc(C(=O)NCc2ccccc2F)c2c(Cl)cccc21 [Compound 25, 4-Chloro-1-(2-methoxy-ethyl)-1H-indole-3-carboxylic acid 2-fluoro-benzylamide] | 0.5 to 0.999 µM
COCCn1cc(C(=O)NC[C@@]2(O)CCC[C@@H](C)C2)c2c(Cl)cccc21 [Compound 15, 4-Chloro-1-(2-methoxy-ethyl)-1H-indole-3-carboxylic acid ((1R,3R)-1-hydroxy-3-methyl-cyclohexylmethyl)-amide] | 0.01 to 0.1 µM
CC(C)(CNC(=O)c1cn(C2COC2)c2cccc(Cl)c12)C1CCCC1 [Compound 50, 4-Chloro-1-oxetan-3-yl-1H-indole-3-carboxylic acid (2-cyclopentyl-2-methyl-propyl)-amide] | 0.101 to 0.5 µM
COCCn1cc(C(=O)NC2COc3ccccc3C2)c2c(Cl)cccc21 (stereo not shown) [Compound 29, 4-Chloro-1-(2-methoxy-ethyl)-1H-indole-3-carboxylic acid chroman-3-ylamide] | 0.101 to 0.5 µM
COCCn1cc(C(=O)NCc2ccccc2C(F)(F)F)c2c(Cl)cccc21 [Compound 24, 4-Chloro-1-(2-methoxy-ethyl)-1H-indole-3-carboxylic acid 2-trifluoromethyl-benzylamide] | 0.5 to 0.999 µM
O=C(NCC(F)F)c1cn(C2COC2)c2cccc(Cl)c12 [Compound 76, 4-Chloro-1-oxetan-3-yl-1H-indole-3-carboxylic acid (2,2-difluoro-ethyl)-amide] | > 1 µM
CC(O)(CNC(=O)c1cn(C2COC2)c2cccc(Cl)c12)C1CCCC1 (stereo not shown) [Compound 49, 4-Chloro-1-oxetan-3-yl-1H-indole-3-carboxylic acid (2-cyclopentyl-2-hydroxy-propyl)-amide] | 0.5 to 0.999 µM
COCCn1cc(C(=O)NC[C@]2(O)CCC[C@H](C)C2)c2c(Cl)cccc21 [Compound 14, 4-Chloro-1-(2-methoxy-ethyl)-1H-indole-3-carboxylic acid ((1S,3S)-1-hydroxy-3-methyl-cyclohexylmethyl)-amide] | 0.01 to 0.1 µM
O=C(NC(CCO)C1CCCCC1)c1cn(C2CCOC2)c2cccc(Cl)c12 (stereo not shown) [Compound 110, 4-Chloro-1-(tetrahydro-furan-3-yl)-1H-indole-3-carboxylic acid (1-cyclohexyl-3-hydroxy-propyl)-amide] | 0.101 to 0.5 µM
O=C(NC1(C2CCCCC2)CC1)c1cn(C2COC2)c2cccc(Cl)c12 [Compound 55, 4-Chloro-1-oxetan-3-yl-1H-indole-3-carboxylic acid (1-cyclohexyl-cyclopropyl)-amide] | 0.101 to 0.5 µM
O=C(NCC1(O)CCCC(F)(F)C1)c1cn(CCN2CCCCC2)c2cccc(Cl)c12 (stereo not shown) [Compound 192, 4-chloro-N-((3,3-difluoro-1-hydroxycyclohexyl)methyl)-1-(2-(piperidin-1-yl)ethyl)-1H-indole-3-carboxamide] | 0.101 to 0.5 µM
O=C(NCC1(O)CCC(F)(F)CC1)c1cn(C2CCOC2)c2cccc(Cl)c12 (stereo not shown) [Compound 104, 4-Chloro-1-(tetrahydro-furan-3-yl)-1H-indole-3-carboxylic acid (4,4-difluoro-1-hydroxy-cyclohexylmethyl)-amide] | 0.101 to 0.5 µM
CC(C)(CNC(=O)c1cn(C2CCOC2)c2cccc(Cl)c12)C1CCCC1 (stereo not shown) [Compound 103, 4-Chloro-1-(tetrahydro-furan-3-yl)-1H-indole-3-carboxylic acid (2-cyclopentyl-2-methyl-propyl)-amide] | 0.101 to 0.5 µM
O=C(NCC1(O)CCCC2(CC2)C1)c1cn(C2COC2)c2cccc(Cl)c12 (stereo not shown) [Compound 57, 4-chloro-N-((5-hydroxyspiro[2.5]octan-5-yl)methyl)-1-(oxetan-3-yl)-1H-indole-3-carboxamide] | 0.101 to 0.5 µM
O=C(NCC1CCC(F)(F)CC1)c1cn(C2CC3(CNC3)C2)c2cccc(Cl)c12 (stereo not shown) [Compound 172, 4-chloro-N-((4,4-difluorocyclohexyl)methyl)-1-(2-azaspiro[3.3]heptan-6-yl)-1H-indole-3-carboxamide] | 0.5 to 0.999 µM
O=C(N[C@@H](C1CCCCC1)C(F)(F)F)c1cn(C2COC2)c2cccc(Cl)c12 [Compound 52, 4-Chloro-1-oxetan-3-yl-1H-indole-3-carboxylic acid ((S)-1-cyclohexyl-2,2,2-trifluoro-ethyl)-amide] | 0.5 to 0.999 µM
CC1CC(O)(CNC(=O)c2cn(C3CCCO3)c3cccc(Cl)c23)CCC1(F)F (stereo not shown) [Compound 97, 4-chloro-N-((4,4-difluoro-1-hydroxy-3-methylcyclohexyl)methyl)-1-(tetrahydrofuran-2-yl)-1H-indole-3-carboxamide] | 0.101 to 0.5 µM

Same assay, conditions: HEK293 transfected with human P2X7; BzATP 10 uM; YO PRO dye uptake; read-out: hP2X7 IC50

Compound | IC50
4-Chloro-1-(tetrahydro-furan-3-yl)-1H-indole-3-carboxylic acid (2-cyclopentyl-2-hydroxy-propyl)-amide [Compound 102] | > 1 µM
CC(C)(NC(=O)c1cn(C2COC2)c2cccc(Cl)c12)[C@]12C[C@H]3C[C@H](C[C@H](C3)C1)C2 [Compound 54, 4-Chloro-1-oxetan-3-yl-1H-indole-3-carboxylic acid (1-adamantan-1-yl-1-methyl-ethyl)-amide] | 0.101 to 0.5 µM
CN(C)C(CNC(=O)c1cn(C2CCOC2)c2cccc(Cl)c12)C1CCCCC1 (stereo not shown) [Compound 111, 4-Chloro-1-(tetrahydro-furan-3-yl)-1H-indole-3-carboxylic acid (2-cyclohexyl-2-dimethylamino-ethyl)-amide] | > 1 µM
C[C@@H](NC(=O)c1cn(C2COC2)c2cccc(Cl)c12)[C@@]12C[C@@H]3C[C@@H](C[C@@](O)(C3)C1)C2 [Compound 61, 4-Chloro-1-oxetan-3-yl-1H-indole-3-carboxylic acid [(3-hydroxy-adamantan-1-yl)-ethyl]-amide] | 0.5 to 0.999 µM
O=C(NCC1(O)CCCC(C(F)(F)F)C1)c1cn(CC2CCCO2)c2cccc(Cl)c12 (stereo not shown) [Compound 136, 4-chloro-N-((1-hydroxy-3-(trifluoromethyl)cyclohexyl)methyl)-1-((tetrahydrofuran-2-yl)methyl)-1H-indole-3-carboxamide] | > 1 µM
COCCn1cc(C(=O)NCc2ccc(C(F)(F)F)cc2)c2c(Cl)cccc21 [Compound 26, 4-Chloro-1-(2-methoxy-ethyl)-1H-indole-3-carboxylic acid 4-trifluoro methyl-benzylamide] | > 1 µM
COCCn1cc(C(=O)NCc2cccc3c2OCCO3)c2c(Cl)cccc21 [Compound 23, 4-Chloro-1-(2-methoxy-ethyl)-1H-indole-3-carboxylic acid (2,3-dihydro-benzo[1,4]dioxin-5-ylmethyl)-amide] | > 1 µM
O=C(N[C@@H](CO)C1CCCCC1)c1cn(C2COC2)c2cccc(Cl)c12 [Compound 63, 4-Chloro-1-oxetan-3-yl-1H-indole-3-carboxylic acid ((R)-1-cyclohexyl-2-hydroxy-ethyl)-amide] | > 1 µM
O=C(NCCC(F)(F)F)c1cn(C2COC2)c2cccc(Cl)c12 [Compound 77, 4-Chloro-1-oxetan-3-yl-1H-indole-3-carboxylic acid (3,3,3-trifluoro-propyl)-amide] | > 1 µM
O=C(NC(C1CCCCC1)C(F)(F)F)c1cn(C2COC2)c2cccc(Cl)c12 (stereo not shown) [Compound 43, 4-chloro-N-(1-cyclohexyl-2,2,2-trifluoroethyl)-1-(oxetan-3-yl)-1H-indole-3-carboxamide] | > 1 µM
COCCn1cc(C(=O)NCc2ccc3c(c2)OCO3)c2c(Cl)cccc21 [Compound 27, 4-Chloro-1-(2-methoxy-ethyl)-1H-indole-3-carboxylic acid (benzo [1,3]dioxol-5-ylmethyl)-amide] | > 1 µM
O=C(NCC1(O)CCCC(C(F)(F)F)C1)c1cn(C2COC2)c2cccc(Cl)c12 (stereo not shown) [Compound 47, 4-chloro-N-((1-hydroxy-3-(trifluoromethyl)cyclohexyl)methyl)-1-(oxetan-3-yl)-1H-indole-3-carboxamide] | > 1 µM
O=C(NC(C1CCCC1)C(F)(F)F)c1cn(C2COC2)c2cccc(Cl)c12 (stereo not shown) [Compound 42, 4-chloro-N-(1-cyclopentyl-2,2,2-trifluoroethyl)-1-(oxetan-3-yl)-1H-indole-3-carboxamide] | > 1 µM
COCCn1cc(C(=O)NCc2ccco2)c2c(Cl)cccc21 [Compound 28, 4-Chloro-1-(2-methoxy-ethyl)-1H-indole-3-carboxylic acid (furan-2-ylmethyl)-amide] | > 1 µM
O=C(NC(c1cccs1)C1CCCCC1)c1cn(C2COC2)c2cccc(Cl)c12 (stereo not shown) [Compound 60, 4-Chloro-1-oxetan-3-yl-1H-indole-3-carboxylic acid (cyclohexyl-thiophen-2-yl-methyl)-amide] | > 1 µM
CC1(CCNC(=O)c2cn(C3COC3)c3cccc(Cl)c23)OCCO1 [Compound 71, 4-Chloro-1-oxetan-3-yl-1H-indole-3-carboxylic acid [2-(2-methyl-dioxolan-2-yl)-ethyl]-amide] | > 1 µM
COCCn1cc(C(=O)NCc2nc3ccccc3s2)c2c(Cl)cccc21 [Compound 31, N-(benzo[d]thiazol-2-ylmethyl)-4-chloro-1-(2-methoxyethyl)-1H-indole-3-carboxamide] | > 1 µM
